Measured values reported in US7173062B2, “Method for the improvement of skin wrinkles using retinyl retinoate” (Enprani Co., Ltd., priority 2001, dated 2007).

Assays:
[1] = Photostability test (UV-A 356 nm, 1H NMR); type: physicochemical; set-up: key: 4 = No qualitative change in ^1H NMR spectrum; 3 = Minute noise but no qualitative change in ^1H NMR spectrum; 2 = Clear noise and some qualitative change in ^1H NMR spectrum; 1 = Qualitative confirmation is difficult in ^1H NMR spectrum; details: room temperature
Method: In order to examine photostability of the compound of formula (1) compared with retinol, 10 mg of sample was irradiated by UV-A light (wavelength 356 nm) using a Spectroline (Model CM-10; Fluorescence analysis cabinet; Spectronics Corporation, Westbury, N.Y., USA) at certain intervals of time at room temperature.

RAR γ = target: T1, RAR γ (Homo sapiens, UniProt P13631); assay: Activity for RAR γ (CAT reporter in HaCaT cells); type: cell-based; details: 1 μM, CAT ELISA
T1 construct: expressed in transfected cells; host or cells: HaCaT
T1 sequence (P13631 1-454): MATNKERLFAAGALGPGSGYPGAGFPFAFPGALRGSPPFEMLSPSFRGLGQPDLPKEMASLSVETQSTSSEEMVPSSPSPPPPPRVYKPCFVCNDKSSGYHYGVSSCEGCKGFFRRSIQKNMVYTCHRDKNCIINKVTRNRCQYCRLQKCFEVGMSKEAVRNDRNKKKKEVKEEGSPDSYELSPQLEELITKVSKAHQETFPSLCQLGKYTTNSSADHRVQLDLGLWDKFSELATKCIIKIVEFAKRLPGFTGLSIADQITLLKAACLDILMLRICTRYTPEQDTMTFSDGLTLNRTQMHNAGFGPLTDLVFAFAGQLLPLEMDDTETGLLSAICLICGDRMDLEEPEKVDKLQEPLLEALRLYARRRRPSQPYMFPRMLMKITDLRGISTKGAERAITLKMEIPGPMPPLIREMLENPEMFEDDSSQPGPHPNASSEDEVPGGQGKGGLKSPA
Method: (§1) The effect of the retinol derivatives on the activity of RAR and RXR was examined as follows.
(§2) Experimental procedure: Recombinant gene of DR5-tk-CAT or DR1-tk-CAT comprising DR1 or DR5 as a response element of RAR/RXR, […] promoter, and CAT (chloramphenicol acetyl transferase) was suitably combined with a plasmid DNA that expresses RAR α, β, γ and cotransfected to HaCaT cell line, a skin cancer cell line, with Lipofectamin (GibcoBRL). Then, the cells were incubated in DMEM/10% FBS medium for 1 day, retinol derivative was added in a concentration of 1 μM, and the cells were incubated again for 1 day under the condition of 5% CO2 and 37° C. The cells were washed with phosphate-buffered salione (PBS). Proteins were extracted from each cell, the activity of β-galactosidase was assayed, and the amount of protein was measured to determine the transfection efficiency. Further, the degree of transcription for RAR or RXR was analyzed by CAT ELISA (Roche Molecular Biochemicals, Mannheim, Germany).

[2] = test system: AP-1 (comprising c-Jun protein); assay: Inhibition of activity of AP-1 protein (Coll-CAT collagenase promoter reporter in HaCaT cells); type: cell-based; details: for Relative inhibition against the expression of collagenase / effect on / inhibitory activity against c-Jun (AP-1), in words: HaCaT, Coll-CAT; for effect on / inhibitory activity against c-Jun (AP-1), in words: c-Jun / RAR α cotransfection
Method: AP-1 (comprising c-Jun protein) is a transcription factor inducing the expression of collagenase that is a major cause of skin wrinkles. […] Therefore, studies thereabout were carried out in a similar manner to Experiment 6 as follows.
Experimental procedure: CAT reporter (Coll-CAT) having the collagenase promoter wherein AP-1 response element (TRE) is contained, was transfected into HaCaT cell line, a skin cancer cell line, using a liposome. Then, the degree of inhibition against the activity of AP-1 by retinol derivatives was measured through CAT ELISA in a similar manner to Experiment 6. Further, the effect of retinol derivatives on the transcriptional activity of c-Jun (a protein that induces transfer of cancer, skin aging and inflammation, and consists of homologous isomers or heterologous isomers), a constitutional element of AP-1, was examined by cotransfecting c-Jun or RAR α expression vector.

RAR β = target: T2, RAR β (Homo sapiens, UniProt P10826); assay: Activity for RAR β (CAT reporter in HaCaT cells); type: cell-based; details: 1 μM, CAT ELISA
T2 construct: expressed in transfected cells; host or cells: HaCaT
T2 sequence (P10826 1-455): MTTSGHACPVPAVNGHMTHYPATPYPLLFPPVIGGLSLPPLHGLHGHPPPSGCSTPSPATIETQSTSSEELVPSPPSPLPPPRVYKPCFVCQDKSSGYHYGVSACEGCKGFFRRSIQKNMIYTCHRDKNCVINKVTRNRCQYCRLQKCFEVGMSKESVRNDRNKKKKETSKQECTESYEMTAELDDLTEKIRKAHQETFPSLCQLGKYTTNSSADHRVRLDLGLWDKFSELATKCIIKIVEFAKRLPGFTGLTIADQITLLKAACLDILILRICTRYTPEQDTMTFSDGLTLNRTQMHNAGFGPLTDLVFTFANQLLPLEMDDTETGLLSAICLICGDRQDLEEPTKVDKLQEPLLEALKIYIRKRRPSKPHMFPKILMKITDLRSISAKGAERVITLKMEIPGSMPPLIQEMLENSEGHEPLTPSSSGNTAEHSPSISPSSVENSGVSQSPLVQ
Method: as §1, §2

RAR α = target: T3, RAR α (Homo sapiens, UniProt P10276); assay: Activity for RAR α (CAT reporter in HaCaT cells); type: cell-based; details: 1 μM, CAT ELISA
T3 construct: expressed in transfected cells; host or cells: HaCaT
T3 sequence (P10276 1-462): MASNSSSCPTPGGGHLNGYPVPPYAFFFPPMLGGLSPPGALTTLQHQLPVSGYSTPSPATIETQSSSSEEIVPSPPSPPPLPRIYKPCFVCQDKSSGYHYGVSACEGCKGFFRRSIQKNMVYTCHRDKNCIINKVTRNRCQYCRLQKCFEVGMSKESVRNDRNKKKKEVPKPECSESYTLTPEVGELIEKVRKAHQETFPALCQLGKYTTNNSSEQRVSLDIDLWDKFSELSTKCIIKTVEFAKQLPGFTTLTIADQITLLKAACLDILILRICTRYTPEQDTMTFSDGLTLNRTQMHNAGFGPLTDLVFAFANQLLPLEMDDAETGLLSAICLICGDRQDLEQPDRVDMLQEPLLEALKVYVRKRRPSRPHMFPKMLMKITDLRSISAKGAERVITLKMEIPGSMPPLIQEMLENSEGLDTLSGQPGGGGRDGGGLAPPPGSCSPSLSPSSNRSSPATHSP
Method: as §1, §2

RXR α, β, γ = assay: Activity for RXR (CAT reporter in HaCaT cells); type: cell-based; details: 1 μM, CAT ELISA, Control = 1.0
Method: as §1, §2

[3] = test system: Normal human fibroblast (Newborn, passage: 6); assay: Collagen synthesis test (Sircol collagen assay); type: cell-based; details: 0.000001%, 0.00001%(w/v); human fibroblast
Method: The effect for collagen synthesis of the compound of formula (1) was examined by using retinol, retinoic acid, and derivatives thereof as comparison compounds to confirm its utility as inhibitors for skin aging as follows. The results are represented in FIG. 2.
Cell: Normal human fibroblast (Newborn, passage: 6)
Medium: DMEM containing 10% FBS→DMEM free of FBS was used when cells were treated with samples.
Concentration: A range of concentration where the samples exert no toxicity to the cells was selected through a cell toxicity test ? 0.000001%, 0.00001%(w/v)
Procedure: 1×10^5 cells/well were inoculated into a 6-well plate. Cells were cultured to show about 79–80% confluent. Cells were treated with test samples and incubated for 2 days (FBS was not added to the medium when cells were treated with samples). After 2 days, cell medium and cells were separated from each other and respectively stored in a refrigerator. The cell extract was subjected to the protein analysis (BCA Protein Assay Kit, PIERCE 23225) and the medium was subjected to collagen analysis.
After the medium was removed, a small amount of PBS was added. Cells were scraped with a scraper. 1N NaOH (100 μl) and distilled water (400 μl) were added and the resulting mixture was allowed to stand overnight. Then, the protein analysis was carried out.
Collagen analysis: Analysis kit (Sircol Collagen assay kit—a dye that specifically combines with soluble collagen is used)
1.0 ml of Sircol Dye Reagent was introduced into each tube and mixed for 30 minutes. The mixture was centrifuged for 10 minutes at 5,000 g or more and the supernatant was removed. 1.0 ml Sircol Alkali Reagent was added, slowly mixed, and absorbance at 540 nm was measured. The amount of protein was converted into the value of collagen analysis (see: Mechanism of Aging and Development 73, 179–187, 1994).
After the above experiment, the increasing ratio for collagen synthesis of the test group over the control group treated only by DMEM was depicted in FIG. 2.

skin of normal adults = assay: Test for skin irritation property (closed patch test); type: in vivo, human; details: closed patch test 24 hours, 20 adults
Method: In order to examine the skin irritation of the compound of formula (1), a patch test for the skin of normal adults was carried out. As the carrier, capryl caprylic triglyceride or the conventional O/W formulation was used, and twenty (20) adults per a group were tested for 24 hours.
The conventional O/W formulation used in the present experiment was prepared according to the following procedure.
Each of the aqueous part of Nos. 1–6 and the oily part of Nos. 7–13 as shown in the following Table 1 was heated to 75–80° C. to be thoroughly dissolved. The oily part was slowly added to the aqueous part and emulsification was performed for 5 minutes at 75–80° C. in a homomixer of 3000rpm. During the emulsification, the mixture was neutralized by the neutralizing agent of No. 14. After the first emulsification, the mixture was cooled, the retinal retaliate and fragrance of Nos. 15–16 were added at 50–55° C., and then the second emulsification was carried out for 3 minutes in a homomixer of 3000rpm. The mixture was cooled again to 27–30° C. to prepare the composition of O/W formulation.
From the experimental results, the irritation indexes were calculated according to the following Equation 1 and the results are represented in the following Table 2. Irritation index={Σ(Test Value×Number of Examinees Corresponding to the Test Value)/(Total Examinees×The Maximum Test Value)×100 Equation 1
Test Value +++: 5, ++: 4, +: 3, +−: 2, −:1
The degree of irritation was determined according to the following standards:
1.9 or less: Minute irritation, 2.0–2.9: Weak irritation, 3.0–3.9: Moderate irritation, 4.0 or more: Strong irritation

[4] = Condition of expression: c-Jun + RAR α, untreated = 8.6
[5] = Condition of expression: c-Jun, untreated = 8.6
[6] = Condition of expression: — (no c-Jun or RAR α vector), untreated = 1.0
[7] = Control = 1.0, listed as retinal acetyl salicylate
[8] = Control = 1.0, listed as retinal salicylate

| SMILES | Relative activity against RAR γ (RAR γ; Control = 1.0) | Relative inhibition against the expression of collagenase [2, 4] | Relative inhibition against the expression of collagenase [2, 5] | Relative inhibition against the expression of collagenase [2, 6] | Relative activity against RAR β (RAR β; Control = 1.0) | Relative activity against RAR α (RAR α; Control = 1.0) | Relative activity against RXR α, β, γ (RXR α, β, γ) | effect on / inhibitory activity against c-Jun (AP-1), in words [2] | other results |
| --- | --- | --- | --- | --- | --- | --- | --- | --- | --- |
| CC1=C(/C=C/C(C)=C/C=C/C(C)=C/C(=O)OC(=O)/C=C(C)/C=C/C=C(C)/C=C/C2=C(C)CCCC2(C)C)C(C)(C)CCC1 | – | – | – | – | – | – | – | – | Photostability level ([1]; After 0 hour, 10 mg sample): 4; Photostability level ([1]; After 2 hours): 3; Photostability level ([1]; After 12 hours): 2; Photostability level ([1]; After 24 hours): 2; Photostability level ([1]; After 48 hours): 2 |
| CC1=C(/C=C/C(C)=C/C=C/C(C)=C/C(=O)O)C(C)(C)CCC1 [Retinoic acid] | 3.0 | 3.1 | 5.4 | 0.6 | 4.0 | 37.0 | 9.5 | – | inhibition of the expression of collagenase ([2]; cells treated together with RAR α (c-Jun expressed)): about 64% |
| CCCCCCCCCCCCCCCC(=O)OC/C=C(C)/C=C/C=C(C)/C=C/C1=C(C)CCCC1(C)C [Retinyl Palmitate] | – | – | – | – | – | – | – | – | effect for collagen synthesis (FIG. 2), comparison in words [3]: much lower effect for collagen synthesis than retinol; Degree of Irritation (skin of normal adults; 0.138% in C.C.T): Moderate irritation (3.0–3.9: Moderate irritation); Irritation Index (skin of normal adults; 0.138% in C.C.T): 3.8; Degree of Irritation (skin of normal adults; 0.55% in C.C.T): Strong irritation (4.0 or more: Strong irritation); Irritation Index (skin of normal adults; 0.55% in C.C.T): 4.5 |
| CC(=O)Oc1ccccc1C(=O)OC/C=C(C)/C=C/C=C(C)/C=C/C1=C(C)CCCC1(C)C [Retinyl acetyl salicylate] | 1.0 | 8.7 | 8.5 | 1.0 | 1.0 | 2.5 | 1.1 | no effect | Relative activity against RAR γ (RAR γ; [7]): no activity; Relative activity against RAR β (RAR β; [7]): no activity; Relative activity against RAR α (RAR α; [7]): low activity |
| CC1=C(/C=C/C(C)=C/C=C/C(C)=C/COC(=O)c2ccccc2O)C(C)(C)CCC1 [Retinyl salicylate] | 1.0 | 8.8 | 8.7 | 1.0 | 1.1 | 3.2 | 1.0 | no effect | Relative activity against RAR γ (RAR γ; [8]): no activity; Relative activity against RAR β (RAR β; [8]): no activity; Relative activity against RAR α (RAR α; [8]): low activity |
